Laboratory results as given in patent publication US20230017045A1, “PYRIDINE AND PYRIMIDINE CARBOXYLATE HERBICIDES AND METHODS OF USE THEREOF” (Dow AgroSciences LLC, priority 2017, published 2023).
Where two headings read alike, the source gives them in different places.

System: test plant species
Assay: Post-emergent herbicidal activity test (greenhouse, foliar spray, visual growth reduction)
Format: in vivo
Settings: post-emergence, 336 h, 140 g ai/ha
Procedure, shortened: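 Visual percent injury (0-100) rated 14 d after treatment, relative to nontreated and solvent-blank plants. Test plants at first or second true leaf stage received an overhead track-sprayer application at 187 L/ha. Compounds were formulated in aqueous acetone/DMSO carrier containing crop oil concentrate and X-77 surfactant.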

[1] = ECHCG: barnyardgrass (Echinochloa crus-galli), 14 days after application, read-out: Visual Growth Reduction (%) 14 Days After Application, ECHCG
[2] = IPOHE: ivy-leaf morning glory (Ipomoea hederacea), 14 days after application, read-out: Visual Growth Reduction (%) 14 Days After Application, IPOHE
[3] = KCHSC: kochia (Bassia scoparia), 14 days after application, read-out: Visual Growth Reduction (%) 14 Days After Application, KCHSC
[4] = ORYSA: rice (Oryza sativa), 14 days after application, read-out: Visual Growth Reduction (%) 14 Days After Application, ORYSA
[5] = SETFA: giant foxtail (Setaria faberi), 14 days after application, read-out: Visual Growth Reduction (%) 14 Days After Application, SETFA
[6] = SORVU: grain sorghum (Sorghum vulgare), 14 days after application, read-out: Visual Growth Reduction (%) 14 Days After Application, SORVU
[7] = STEME: common chickweed (Stellaria media), 14 days after application, read-out: Visual Growth Reduction (%) 14 Days After Application, STEME
[8] = TRZAS: wheat, spring (Triticum aestivum), 14 days after application, read-out: Visual Growth Reduction (%) 14 Days After Application, TRZAS
[9] = blackgrass (Alopecurus myosuroides), 14 Days After Application, read-out: Visual Growth Reduction (%) ALOMY
[10] = canada thistle (Cirsium arvense), 14 Days After Application, read-out: Visual Growth Reduction (%) CIRAR
[11] = crabgrass (Digitaria sanguinalis), 14 Days After Application, read-out: Visual Growth Reduction (%) DIGSA
[12] = lambsquarters (Chenopodium album), 14 Days After Application, read-out: Visual Growth Reduction (%) CHEAL
[13] = redroot pigweed (Amaranthus retroflexus), 14 Days After Application, read-out: Visual Growth Reduction (%) AMARE
[14] = wild oat (Avena fatua), 14 Days After Application, read-out: Visual Growth Reduction (%) AVEFA
[15] = yellow nutsedge (Cyperus esculentus), 14 Days After Application, read-out: Visual Growth Reduction (%) CYPES

COC(=O)c1nc(-c2c(Cl)cc(C(F)(F)F)cc2[N+](=O)[O-])ccc1Cl [F206, Methyl 3-chloro-6-(2-chloro-6-nitro-4-(trifluoromethyl)phenyl)picolinate]
pest or weed control at 140 g/ha [1]: 0 to 29% | pest or weed control at 140 g/ha [2]: 95 to 100% | pest or weed control at 140 g/ha [3]: 30 to 44% | pest or weed control at 140 g/ha [4]: 75 to 84% | pest or weed control at 140 g/ha [5]: 75 to 84% | pest or weed control at 140 g/ha [6]: 75 to 84% | pest or weed control at 140 g/ha [7]: 0 to 29% | pest or weed control at 140 g/ha [8]: 0 to 29% | pest or weed control at 140 g/ha [9]: 0 to 29% | pest or weed control at 140 g/ha [10]: 30 to 44% | pest or weed control at 140 g/ha [11]: 45 to 59% | pest or weed control at 140 g/ha [12]: 30 to 44% | pest or weed control at 140 g/ha [13]: 45 to 59% | pest or weed control at 140 g/ha [14]: 0 to 29% | pest or weed control at 140 g/ha [15]: 0 to 29%

O=C(O)c1nc(-c2cc3c(cc2F)OC(F)(F)O3)c(F)cc1Cl [F334, 3-Chloro-5-fluoro-6-(2,2,6-trifluorobenzo[d][1,3]dioxol-5-yl)picolinic acid]
pest or weed control at 140 g/ha [1]: 75 to 84% | pest or weed control at 140 g/ha [2]: 95 to 100% | pest or weed control at 140 g/ha [3]: 60 to 74% | pest or weed control at 140 g/ha [4]: 45 to 59% | pest or weed control at 140 g/ha [5]: 75 to 84% | pest or weed control at 140 g/ha [6]: 95 to 100% | pest or weed control at 140 g/ha [7]: 0 to 29% | pest or weed control at 140 g/ha [8]: 75 to 84% | pest or weed control at 140 g/ha [9]: 75 to 84% | pest or weed control at 140 g/ha [11]: 95 to 100% | pest or weed control at 140 g/ha [12]: 75 to 84% | pest or weed control at 140 g/ha [13]: 75 to 84% | pest or weed control at 140 g/ha [14]: 60 to 74% | pest or weed control at 140 g/ha [15]: 60 to 74%

COC(=O)c1nc(-c2cc(F)c3c(c2)OC(F)(F)O3)ccc1Cl [F367, Methyl 3-chloro-6-(2,2,7-trifluorobenzo[d][1,3]dioxol-5-yl)picolinate]
pest or weed control at 140 g/ha [1]: 0 to 29% | pest or weed control at 140 g/ha [2]: 95 to 100% | pest or weed control at 140 g/ha [3]: 0 to 29% | pest or weed control at 140 g/ha [4]: 0 to 29% | pest or weed control at 140 g/ha [5]: 0 to 29% | pest or weed control at 140 g/ha [6]: 0 to 29% | pest or weed control at 140 g/ha [7]: 0 to 29% | pest or weed control at 140 g/ha [8]: 0 to 29% | pest or weed control at 140 g/ha [9]: 0 to 29% | pest or weed control at 140 g/ha [10]: 0 to 29% | pest or weed control at 140 g/ha [11]: 75 to 84% | pest or weed control at 140 g/ha [12]: 0 to 29% | pest or weed control at 140 g/ha [13]: 0 to 29% | pest or weed control at 140 g/ha [14]: 0 to 29% | pest or weed control at 140 g/ha [15]: 0 to 29%

COc1cc(C(F)(F)F)ccc1-c1ncc(Cl)c(C(=O)O)n1 [F366, 5-Chloro-2-(2-methoxy-4-(trifluoromethyl)phenyl)pyrimidine-4-carboxylic acid]
pest or weed control at 140 g/ha [1]: 75 to 84% | pest or weed control at 140 g/ha [2]: 95 to 100% | pest or weed control at 140 g/ha [3]: 0 to 29% | pest or weed control at 140 g/ha [4]: 0 to 29% | pest or weed control at 140 g/ha [5]: 75 to 84% | pest or weed control at 140 g/ha [6]: 75 to 84% | pest or weed control at 140 g/ha [7]: 0 to 29% | pest or weed control at 140 g/ha [8]: 0 to 29% | pest or weed control at 140 g/ha [9]: 0 to 29% | pest or weed control at 140 g/ha [10]: 30 to 44% | pest or weed control at 140 g/ha [11]: 75 to 84% | pest or weed control at 140 g/ha [12]: 85 to 94% | pest or weed control at 140 g/ha [13]: 75 to 84% | pest or weed control at 140 g/ha [14]: 0 to 29% | pest or weed control at 140 g/ha [15]: 0 to 29%

COC(=O)c1nc(-c2cc(C)c(C(F)(F)F)cc2F)c(F)cc1Cl [F360, Methyl 3-chloro-5-fluoro-6-(2-fluoro-5-methyl-4-(trifluoromethyl)phenyl)picolinate]
pest or weed control at 140 g/ha [1]: 0 to 29% | pest or weed control at 140 g/ha [2]: 95 to 100% | pest or weed control at 140 g/ha [3]: 45 to 59% | pest or weed control at 140 g/ha [4]: 0 to 29% | pest or weed control at 140 g/ha [5]: 0 to 29% | pest or weed control at 140 g/ha [6]: 0 to 29% | pest or weed control at 140 g/ha [7]: 0 to 29% | pest or weed control at 140 g/ha [8]: 0 to 29% | pest or weed control at 140 g/ha [9]: 0 to 29% | pest or weed control at 140 g/ha [10]: 0 to 29% | pest or weed control at 140 g/ha [11]: 0 to 29% | pest or weed control at 140 g/ha [12]: 95 to 100% | pest or weed control at 140 g/ha [13]: 95 to 100% | pest or weed control at 140 g/ha [14]: 0 to 29% | pest or weed control at 140 g/ha [15]: 0 to 29%
